Reference: US20250049926A1, “PHARMACEUTICAL COMPOSITIONS COMPRISING MODIFIED BETACYCLODEXTRINS” (priority 2021, published 2025)

Test: Solubility measurement of saturated solutions by HPLC at room temperature (0 h and 24 h)
Assay type: physicochemical
Settings: buffered water with excipients, pH 4, aqueous with cosolvent or surfactant or cyclodextrin, thermodynamic from solid
Procedure: The vial contents are prepared starting with 2.5 mg of the compound of formula (I). The primary excipient is added followed by any further excipient and then the buffered water to a total volume of 500 μL. All components are mixed in a vortex mixer for ca. 5 minutes. If everything is dissolved an additional 2.5 mg of the compound of formula (I) is added and vortexed again for ca. 5 minutes. This is repeated until a saturated solution (suspension) is obtained.
The solubility in vial 1 is measured immediately as described below.
To measure solubility 400 μl of the suspension are taken and placed in a centrifugation device above a 0.2 μm filter. Centrifugation is performed at 14,000 rpm for 10 minutes and if necessary repeated for additional 10 minutes. The filter is removed from the vial and 100 μL is taken and diluted with 400 μL high-performance liquid chromatography (HPLC) diluent solution (see below) or diluted with 900 μL HPLC diluent solution in the event 5 mg or more of the compound of formula (I) was used. The pH of the solution is measured. A further 100 μL of the vial solution is taken and diluted with 400 μL of HPLC diluent solution or diluted with 900 μL HPLC diluent solution in the event 5 mg or more of the compound of formula (I) was used. The assay of the solution versus control stock solution is measured by HPLC and the solubility is calculated as described below. The HPLC diluent solution is 0.1% trifluoroacetic acid (TFA) in acetonitrile (ACN) and water (1:1 v/v).
All solubility tests are performed at room temperature.
The HPLC method for assessing solubility is performed as follows:
The solubility of the compound of formula (I) is calculated according to the following formula:
[formula] • Solubility=solubility of compound of formula (I) (mg/mL) • A=peak area of the compound of the sample tested • a=value of constant “a” in Linear regression equation y=ax+b • b=value of constant “b” in Linear regression equation y=ax+b • n=dilution time • Formulations for stability assessment are prepared as follows: […]

- solubility at 0 h (CBS 30 mM pH 4.0, NaCl 3 mg/mL, SBE-beta-CD 40 mg/mL + Kollidon 12 P188 5 mg/mL, pH exp 4.1): 2590 µg/mL
- solubility at 24 h (CBS 30 mM pH 4.0, NaCl 3 mg/mL, SBE-beta-CD 40 mg/mL + Kollidon 12 P188 5 mg/mL, pH exp 4.2): 3710 µg/mL
- solubility at 0 h (CBS 30 mM pH 4.0, NaCl 3 mg/mL, SBE-beta-CD 40 mg/mL + Na CMC 5 mg/mL, pH exp 4.1): 1710 µg/mL
- solubility at 24 h (CBS 30 mM pH 4.0, NaCl 3 mg/mL, SBE-beta-CD 40 mg/mL + Na CMC 5 mg/mL, pH exp n. a.): 2670 µg/mL
- solubility at 0 h (CBS 30 mM pH 4.0, NaCl 3 mg/mL, SBE-beta-CD 40 mg/mL + PEG 400 1 mg/mL, pH exp 4.1): 2480 µg/mL
- solubility at 24 h (CBS 30 mM pH 4.0, NaCl 3 mg/mL, SBE-beta-CD 40 mg/mL + PEG 400 1 mg/mL, pH exp 4.2): 3730 µg/mL
- solubility at 0 h (CBS 30 mM pH 4.0, NaCl 3 mg/mL, SBE-beta-CD 40 mg/mL + PEG 400 5 mg/mL, pH exp 4.1): 2340 µg/mL
- solubility at 24 h (CBS 30 mM pH 4.0, NaCl 3 mg/mL, SBE-beta-CD 40 mg/mL + PEG 400 5 mg/mL, pH exp 4.2): 3750 µg/mL
- solubility at 0 h (CBS 30 mM pH 4.0, NaCl 3 mg/mL, SBE-beta-CD 40 mg/mL + PEG 400 10 mg/mL, pH exp 4.1): 2590 µg/mL
- solubility at 24 h (CBS 30 mM pH 4.0, NaCl 3 mg/mL, SBE-beta-CD 40 mg/mL + PEG 400 10 mg/mL, pH exp 4.2): 3790 µg/mL
- solubility at 0 h (CBS 30 mM pH 4.0, NaCl 3 mg/mL, SBE-beta-CD 40 mg/mL + PEG 400 20 mg/mL, pH exp 4.1): 2570 µg/mL
- solubility at 24 h (CBS 30 mM pH 4.0, NaCl 3 mg/mL, SBE-beta-CD 40 mg/mL + PEG 400 20 mg/mL, pH exp 4.2): 3810 µg/mL
- solubility at 0 h (CBS 30 mM pH 4.0, NaCl 3 mg/mL, SBE-beta-CD 40 mg/mL + PEG 400 30 mg/mL, pH exp 4.1): 2670 µg/mL
- solubility at 24 h (CBS 30 mM pH 4.0, NaCl 3 mg/mL, SBE-beta-CD 40 mg/mL + PEG 400 30 mg/mL, pH exp 4.2): 3860 µg/mL
- solubility at 0 h (CBS 30 mM pH 4.0, NaCl 3 mg/mL, SBE-beta-CD 40 mg/mL + PEG 4000 5 mg/mL, pH exp 4.1): 2420 µg/mL
- solubility at 24 h (CBS 30 mM pH 4.0, NaCl 3 mg/mL, SBE-beta-CD 40 mg/mL + PEG 4000 5 mg/mL, pH exp 4.2): 3670 µg/mL
- solubility at 0 h (CBS 30 mM pH 4.0, NaCl 3 mg/mL, SBE-beta-CD 40 mg/mL + Soybean lecithin 10 mg/mL, pH exp 4.1): 2520 µg/mL
- solubility at 24 h (CBS 30 mM pH 4.0, NaCl 3 mg/mL, SBE-beta-CD 40 mg/mL + Soybean lecithin 10 mg/mL, pH exp 4.3): 3600 µg/mL
- solubility at 0 h (CBS 30 mM pH 4.0, NaCl 3 mg/mL, SBE-beta-CD 40 mg/mL + Tween 80 5 mg/mL, pH exp 4.1): 2950 µg/mL
- solubility at 24 h (CBS 30 mM pH 4.0, NaCl 3 mg/mL, SBE-beta-CD 40 mg/mL + Tween 80 5 mg/mL, pH exp 4.2): 4040 µg/mL
- solubility at 0 h (CBS 30 mM pH 4.0, NaCl 6 mg/mL, SBE-beta-CD 40 mg/mL + Kollidon 12 PF 2.5 mg/mL, pH exp 4.1): 2370 µg/mL
- solubility at 24 h (CBS 30 mM pH 4.0, NaCl 6 mg/mL, SBE-beta-CD 40 mg/mL + Kollidon 12 PF 2.5 mg/mL, pH exp 4.3): 3690 µg/mL
- solubility at 0 h (CBS 30 mM pH 4.0, NaCl 6 mg/mL, SBE-beta-CD 40 mg/mL + Kollidon 12 PF 5 mg/mL, pH exp 4.0): 2510 µg/mL
- solubility at 24 h (CBS 30 mM pH 4.0, NaCl 6 mg/mL, SBE-beta-CD 40 mg/mL + Kollidon 12 PF 5 mg/mL, pH exp 4.2): 3750 µg/mL
- solubility at 0 h (CBS 30 mM pH 4.0, NaCl 6 mg/mL, SBE-beta-CD 40 mg/mL + Kollidon 12 PF 10 mg/mL, pH exp 4.1): 2520 µg/mL
- solubility at 24 h (CBS 30 mM pH 4.0, NaCl 6 mg/mL, SBE-beta-CD 40 mg/mL + Kollidon 12 PF 10 mg/mL, pH exp 4.2): 3700 µg/mL
- solubility at 0 h (CBS 30 mM pH 4.0, NaCl 6 mg/mL, SBE-beta-CD 40 mg/mL + Propylene glycol 5 mg/mL, pH exp 4.1): 2360 µg/mL
SMILES: COc1cc(N2CCNCC2)ccc1Nc1ncc2c(n1)-n1ccc(C(=O)Nc3c(C)cccc3C)c1CC2 [compound of formula (I)]
